We go through three molecules from patent US11001892B2, “Methods of diagnosing endometriosis” (The Regents of the University of California, priority 2007, dated 2021).

For experiment [1], the system named is endometrial stromal fibroblasts (ESFs). Briefly: Regulation of steroidogenic enzymes in ESFs by cAMP and/or E2/P4, Q-PCR. Format: cell-based, human. As for the experimental part:
ESFs were isolated from endometrial biopsies from 15 women with and 7 women without endometriosis. […] IGFBP1 and PRL protein secretion was measured by ELISA. […] Purity of ESF populations at passage 2 was evaluated by immunohistochemistry using cytokeratin, vimentin and CD45 antibodies. Endometrial tissue biopsies were obtained from mid-secretory phase endometrium from 5 women without and 5 women with severe endometriosis.

Experiment [2] has as its system pro-MMP-3 or pro-MMP-7 secretion. The settings on record: in vitro treatment of endometrial tissues from women with endometriosis; cited from earlier work.
Experiment [3] concerns eutopic endometrium of women with endometriosis. The settings on record: cited from earlier work.
Another experiment concerns ERK. Briefly: ERK 1/2 phosphorylation in cultured eutopic endometrial stromal cells. Format: cell-based, human. The following applies: eutopic endometrial stromal cells from patients with endometriosis; treatment within 60 min; level then similar to cells from patients without endometriosis. The text has this: Growth of ectopic endometrial tissues in the pelvic cavity, which is a hallmark of endometriosis, is associated with elevated levels of inflammatory cytokines and increased number of activated macrophages in the peritoneal environment. […] In this example, the expression of inflammatory-associated genes in cultured eutopic endometrial stromal cells from women with versus without endometriosis was examined using quantitative RT-PCR. […] Interleukin-1 beta and cyclooxygenase-2 mRNA expression were similar in cultured endometrial stromal cells from women with vs. without endometriosis. Cell proliferation was similar in eutopic endometrial stromal cells from women with versus without endometriosis when cultured in 0%, 2%, or 10% charcoal stripped FBS-containing medium or in the presence of insulin. Increased IL-8 production in endometriosis is accompanied by a strong increased phosphorylation of ERK ½ (P=0.04), a signaling molecule shown to activate IL-8 expression in endometrial stromal cells. […] Since phosphorylation of ERK and IL-8 expression increases cell migration and invasion of endometrial stromal cells, dysregulation of MAPK activity and IL-8 expression in the eutopic endometrial stromal cells of women with endometriosis may be associated with the pathophysiology and spread of the disease.

In another experiment the test system is TOB1. The following applies: cultured human endometrial stromal cells from women with endometriosis; cited from earlier work.

With `CC(=O)[C@H]1CC[C@H]2[C@@H]3CCC4=CC(=O)CC[C@]4(C)[C@H]3CC[C@]12C` [P4, progesterone], in experiment [1] (ESFs from women with vs without endometriosis), the “Cyp17A1 (P450c17) expression” value was “slightly down-regulated”. Further, the “Aromatase (Cyp19A1) regulation” value in experiment [1] (ESFs, cAMP effect in women with endometriosis) is “not regulated”. In experiment [1] (P4 stimulated ESFs from women with endometriosis), the 3βHSD1 expression entry is on record as “Down regulation”. Besides, in experiment [2], the “suppression of pro-MMP-3 or pro-MMP-7 secretion” value was “fails to fully suppress”. The “prevention of the ability of tissues to establish experimental disease in mice” value in experiment [3] (endometrial tissues from women with endometriosis treated in vitro) is listed as “fails to prevent”. The “high basal ERK phosphorylation” value with ERK is recorded as “successfully diminished”.
On to `Cn1c(C#N)ccc1-c1ccc2c(c1)C(C)(C)OC(=S)N2` [tanaproget], for which the “progesterone insensitivity of eutopic endometrium of women with endometriosis” value in experiment [3] (endometrial cell culture and nude mouse models) is recorded as “could be corrected”.
Take “IL-1β: a central cytokine in endometriosis”: the TOB1 expression result in the experiment with TOB1 is “reduced TOB1 expression”.
